Values quoted from earlier work, collected in patent publication US11077045B2, “Blood microperfusion to skin by Shilajit” (Natreon, Inc., priority 2018, dated 2021).

Tests used:
[1] = transdermal preparation, subjects with diabetes
[2] = low-dose administration, rats

N=C(N)NCCC[C@H](N)C(=O)O [L-arginine]
blood flow in feet [1]: improved | microperfusion of rat skin [2]: increase microperfusion
